In patent US20250011809A1, “VIRAL VECTOR PRODUCTION” (Cell Therapy Catapult Limited, priority 2021, published 2025):
Where “and” joins values, the source holds several entries; their conditions need not be identical. Identical values can stand only once. Ends that are not written are not given here.

What was measured:
Assay type in all cases: cell-based, human
[1] = system: HEK293-F cells; experiment: HEK293-F cell count and viability by flow cytometry after transfection in suspension culture (Example 5); parameters: viability at 24 h / viability at 48 h / viability at 72 h: concentration or dose not given beside the values
Experimental: (§1) HEK293-F cells were seeded into shake flasks with a 20 mL serum-free BalanCD medium at working volume at a cell concentration of 1×10^6/mL for lentiviral production and 2×10^6/mL for AAV production. Transfection with the plasmids for AAV1, AAV2, LV (two experimental replicates, LV1 and LV2) were carried out using PEI-Pro or RALA peptides as set out in Table 8 below.
(§2) The HEK293-F cell counts were determined using flow cytometry immediately prior to transfection, and then at 24 hrs, 48 hrs and 72 hrs post transfection.

[2] = as above; parameters: viability at 24 h / viability at 48 h / viability at 72 h: concentration or dose not given beside the values; conditions: human, HEK293-F cells in suspension culture (shake flasks); for viability at 24 h: 24 h post-transf; for viability at 48 h: 48 h post-transf; for viability at 72 h: 72 h post-transf
Experimental: as §1, §2

[3] = system: HEK293 cells; experiment: Viability of adherent HEK293 cells after transfection with GFP reporter plasmid (Example 1); conditions: 3 days after transfection with 50 ng GFP plasmid; RALA N:P10, PEIpro 3:1; FIG. 1
Experimental: HEK293 cells were seeded at a density of 1×10^5 cells per well on 24 well plates. 24 hrs later, cells were transfected with 50 ng of plasmid encoding a GFP reporter gene, either complexed with RALA (SEQ ID NO: 1) at N:P10 (14.5 μg of RALA is complexed per 1 μg of DNA) or using PEIpro at a 3:1 ratio. The cells were stained to assess cell viability after 3 days.

[4] = AAV1 plasmids, 24 h post-transf
[5] = AAV1 plasmids, 48 h post-transf
[6] = AAV1 plasmids, 72 h post-transf
[7] = AAV2 plasmids, 24 h post-transf
[8] = AAV2 plasmids, 48 h post-transf

In the case of WEARLARALARALARHLARALARALRACEA [RALA], the Count [1, 4] is reported as 3.63E+06 and 3.52E+06, the Via % [1, 4] is reported as 88.2% and the Count [1, 5] is reported as 4.14E+06 and 3.39E+06. For the same sequence, the Via % [1, 5] was 83.9%, the Count [1, 6] was 5.82E+06 and 5.55E+06 and the Via % [1, 6] was 82.5%. The Count [1, 7] was 3.57E+06 and 3.37E+06, the Via % [1, 7] was 89.1% and the Count [1, 8] was 3.81E+06 and 4.07E+06. For the same sequence, the Via % [1, 8] was 84.8%, the Via % ([1]; AAV2 plasmids, 72 h post-transf) was 76.5% and the Count ([1]; LV plasmids, 24 h post-transf) was 2.31E+06 and 2.05E+06. For the same sequence, the Via % ([1]; LV plasmids, 24 h post-transf) was 92.7%, the Count ([1]; LV plasmids, 48 h post-transf) was 3.42E+06 and 2.83E+06 and the Via % ([1]; LV plasmids, 48 h post-transf) was 88.6%. For the same sequence, the Via % ([1]; LV plasmids, 72 h post-transf) was 89.6% and 86%, the viability at 24 h ([2]; AAV1 plasmids) was 90% and the viability at 48 h ([2]; AAV1 plasmids) was 86.1%. It also gave a viability at 72 h ([2]; AAV1 plasmids) of 83.1%, a viability at 24 h ([2]; AAV2 plasmids) of 87.7% and a viability at 48 h ([2]; AAV2 plasmids) of 81.6%. The viability at 72 h ([2]; AAV2 plasmids) was 76%, the viability at 24 h ([2]; LV plasmids) was 92% and the viability at 48 h ([2]; LV plasmids) was 92%. For the same sequence, the “viability of adherent HEK293 cells” value [3] was “significantly greater”.
